Where “and” joins values, the source holds several entries; their conditions need not be identical. Equal values may be shown once.
Columns and labels:
[1] = DMSO penetration in IVDs tracked by CT; type: in vitro ADME, bovine; settings: for DMSO saturation level: free swelling IVD without compression, 10% DMSO
Experimental: In this example, the transport of DMSO in free-swelling IVDs was assessed. Three skeletally mature Black Angus bovine IVDs were incubated in 10% DMSO for three days and CT-scanned at 0, 24, 56, and 72 hours. DMSO penetration was tracked using a Toshiba Aquilion 64-slice Computed Tomography (CT) unit provided by the Carlson College of Veterinary Medicine at Oregon State University. Acquisition parameters were set to 120 kVp, 240 FoV, 0.6 pitch, and 250 mA.
Materialize Mimics® 21.0 was used to segment the IVD's soft tissue (AF and NP). A code was developed in MATLAB® 9.9 to perform a Gaussian curve-fitting analysis of the segmented scans, estimating the mean signal intensity (FIG. 12).
The correlation in equation 1 was developed To relate mean signal intensity to penetration %, the mean signal intensity was normalized for the sample of interest (IVDn) to the intensities of both a fresh IVD (IVD0) and a fully-saturated IVD (IVDF*).
The effectiveness of PrimeGrowth™ (n=3) and compression (n=3) in improving the transport of DMSO and decreasing cell CPA exposure time were also assessed. PrimeGrowth™ is designed to clear blood clots in the CEP, improving transport through its pores and channels. Axial compression could enhance the convection transport of fluids in the IVD. IVDs treated with PrimeGrowth™ were incubated in a 30 mL Isolation Medium for one hour and rinsed in an equal volume of Neutralization Medium for two minutes. In a separate protocol, bovine IVDs were compressed in a custom-built bioreactor for four hours under a sine-wave load (0 MPa to 2.5 MPa at 0.1 Hz) and soaked in 10% DMSO. DMSO penetration in IVDs was tracked via CT scans compared to a control group (n=3) soaking in 10% DMSO. CT scans were acquired at 0, 5, 8, 24, and 36 hours.

[2] = tested on: nucleus pulposus (NP) cells; test: Cytotoxicity of CPA 1 on NP cells in monolayer culture (LIVE/DEAD assay); type: cell-based, bovine; settings: PG as part of CPA 1 (FIG. 13)
Description: In this example, NP cells were isolated following a protocol adapted and modified from Wiseman et al. (Wiseman, M. A., H. L. Birch, M. Akmal, and A. E. Goodship, Spine, 2005, 30:505-11). Two freshly skinned skeletally mature bovine tails were obtained from a local abattoir, disinfected for five minutes in a 1% Betadine solution (RC3955, VWR International, PA), and allowed to dry in a sterile environment for ten minutes. Muscle and fat tissue were removed from each tail, exposing the IVDs. The isolated IVDs were wrapped with a sterile gauze soaked in 0.9% sodium chloride (IC102892.5, VWR International, PA) and 55 mM sodium citrate (BDH9288, VWR International, PA) while awaiting dissection.
NP tissue was removed with a scalpel, cut into 4 mm^2 pieces, and digested in a humidified cell incubator at 37° C. and 5% CO2. […]
In this example, NP cells were cultured in 6 well-plates to elucidate the cytotoxicity of CPA 1 composed of 80% DMEM (D6046, Sigma), 10% DMSO (IC0219605590, VWR International, PA), and % 10 propylene glycol (PG) (P4347, Sigma, MO). […] Cells were stained with a fluorescent LIVE/DEAD™ assay (L3224, ThermoFisher, MA) and scanned using Keyence BZ-X700 fluorescence microscope (Oregon State University, OR). […]

time required for DMSO to fully saturate the disc ([1]; IVD compressed before soaking in 10% DMSO) | time required to reach a 75% level of penetration ([1]; IVD without compression) | time to reach equilibrium with the surrounding solution ([1]; IVD without compression (FIG. 14)) | DMSO penetration ([1]; compression then free swelling, in 3 to 4 hours) | decrease of the time required for full penetration by compression (improvement) ([1]; compression vs no compression) | DMSO penetration ([1]; compression, at 3 hours) | DMSO saturation level ([1]; after 24 hours) | DMSO saturation level ([1]; by 72 hours of incubation) | mean DMSO penetration % compared to time 0 (one-way ANOVA, p<0.05) ([1]; free-swelling IVDs, after 24 hours of incubation) | SMILES | effect on cell viability in a monolayer cell culture [2]
3 h | 72 h | 72 h | about 90% | 96% and 95% | 97% | 50% | 75% | significantly different | C[S+](C)[O-] [DMSO, dimethylsulfoxide] | –
– | – | – | – | – | – | – | – | – | CC(O)CO (stereo not shown) [PG, propylene glycol] | devastating for cell viability
